The target of series [1] is T1, KDM5A protein (Homo sapiens, UniProt P29375).
T1 construct: purchased BPS Bioscience 50110
Put plainly: Biochemical KDM5A inhibition assay (HTRF). As for the experimental part:
Using 384-well white ProxiPlates (PerkinElmer), representative compounds were characterized for their inhibition of KDM5A using HTRF® technology (Cisbio Bioassays). Briefly, the test compounds, reference compounds, and DMSO control (typical compound concentration range 300 pM-10 μM, final assay concentration (FAC) of DMSO 0.5%) were added to 384-well plate by the Echo® acoustic dispensing platform (Labcyte). Three (3) μ1 of KDM5A protein (BPS Bioscience, Cat #50110)(10 or 20 nM FAC) in assay buffer (50 mM MES, 50 mM NaCl, 2 mM ascorbic acid, 0.01% v/v Tween 20, pH 6.5) was added to wells and plates were incubated for 10 minutes at room temperature. Then, 3 μl of biotin-labelled H3K4-me3 substrate (Anaspec Cat #AS-64357-1; 100 nM FAC), alpha-ketoglutaric acid ([…]) and Fe(II)SO4 (FAC 100 μM) in assay buffer was added and plates were incubated for 60 minutes at room temperature. The reaction was stopped with the addition of 6 μl of anti-H3-[…]-Eu(K) (Cisbio Bioassays Cat #61KA2KAE; 0.025 μg/ml FAC)+Streptavidin XL665 (Cisbio Bioassays Cat #610SAXLA; 0.5 μg/ml FAC) in HTRF detection buffer (Cisbio Bioassays Cat #62SDBRDD). The mixture was incubated for 90 minutes at room temperature before 340 nm excitation and measurement of dual emission at 620 nm and 665 nm. The raw data (a 665 nm and a 620 nm reading from each well) for individual assay plates were analyzed. The ratio of emissions was calculated using the following calculation: Ratio=(665 nm emission/620 nm emission)*10000. Using DMSO control (maximum response or 0% inhibition) and 1 μM reference control compound (minimum response or 100% inhibition), percentage inhibition values for each well were calculated using the median values of the minimum and maximum control wells and the following calculation: % Inhibition=(Well ratio-max control ratio)/(min control ratio-max control ratio)*100. Compound IC50 values were calculated from graphs of % inhibition plotted against compound concentration, using a four parameter curve fit.
For orientation: TR-FRET usually uses a lanthanide donor and a delayed reading to cut background.

Series [2] can be described thus: Permeability in wild type MDCK cell lines (MDCK-WT). The series is classed as in vitro ADME. The settings on record: dog, MDCK, pH 7.4, apical to basal, 10 μM test compound. As for the experimental part:
Wild type MDCKII cells were seeded onto an apical chamber 3 days prior to running the assay at a density of 2.3×10^5 cells per well. The integrity of cell monolayers was evaluated by examining the permeability of lucifer yellow assay using a Spectramax Gemini XS with excitation and emission at 426 nm and 538 nm respectively. Permeation of Lucifer Yellow should be ≤10×10^−6 cm/s for the experimental data to be accepted. The cell monolayers were preincubated in transport buffer (HBSS with CaCl2 and MgCl2)+25 mM HEPES, adjust to pH 7.4) at 37° C. or more than 20 min. Transport experiment was initiated by adding test compound solution (10 μM) to the apical chamber. Samples were obtained from basal chamber at 60 min, followed by addition of ice-cold acetonitrile containing internal standard. LC-MS/MS analysis was conducted as specified below. Standard calibration samples were prepared using the same matrix and analysed in the same manner. [table] […] Papp(cm/s)=(dCB/dt)×VB/(A×CA) dCB/dt is the slope of the cumulative concentration in basal side versus time VB is the volume of the basal compartment A is the area of the membrane surface area CA is the initial concentration in apical side

Where [3] appears, read: 20 nM enzyme concentration, read-out: IC50 value.

The structures appear in SMILES notation. Where two headings read alike, the source gives them in different places.

T1 sequence (P29375 whole entry): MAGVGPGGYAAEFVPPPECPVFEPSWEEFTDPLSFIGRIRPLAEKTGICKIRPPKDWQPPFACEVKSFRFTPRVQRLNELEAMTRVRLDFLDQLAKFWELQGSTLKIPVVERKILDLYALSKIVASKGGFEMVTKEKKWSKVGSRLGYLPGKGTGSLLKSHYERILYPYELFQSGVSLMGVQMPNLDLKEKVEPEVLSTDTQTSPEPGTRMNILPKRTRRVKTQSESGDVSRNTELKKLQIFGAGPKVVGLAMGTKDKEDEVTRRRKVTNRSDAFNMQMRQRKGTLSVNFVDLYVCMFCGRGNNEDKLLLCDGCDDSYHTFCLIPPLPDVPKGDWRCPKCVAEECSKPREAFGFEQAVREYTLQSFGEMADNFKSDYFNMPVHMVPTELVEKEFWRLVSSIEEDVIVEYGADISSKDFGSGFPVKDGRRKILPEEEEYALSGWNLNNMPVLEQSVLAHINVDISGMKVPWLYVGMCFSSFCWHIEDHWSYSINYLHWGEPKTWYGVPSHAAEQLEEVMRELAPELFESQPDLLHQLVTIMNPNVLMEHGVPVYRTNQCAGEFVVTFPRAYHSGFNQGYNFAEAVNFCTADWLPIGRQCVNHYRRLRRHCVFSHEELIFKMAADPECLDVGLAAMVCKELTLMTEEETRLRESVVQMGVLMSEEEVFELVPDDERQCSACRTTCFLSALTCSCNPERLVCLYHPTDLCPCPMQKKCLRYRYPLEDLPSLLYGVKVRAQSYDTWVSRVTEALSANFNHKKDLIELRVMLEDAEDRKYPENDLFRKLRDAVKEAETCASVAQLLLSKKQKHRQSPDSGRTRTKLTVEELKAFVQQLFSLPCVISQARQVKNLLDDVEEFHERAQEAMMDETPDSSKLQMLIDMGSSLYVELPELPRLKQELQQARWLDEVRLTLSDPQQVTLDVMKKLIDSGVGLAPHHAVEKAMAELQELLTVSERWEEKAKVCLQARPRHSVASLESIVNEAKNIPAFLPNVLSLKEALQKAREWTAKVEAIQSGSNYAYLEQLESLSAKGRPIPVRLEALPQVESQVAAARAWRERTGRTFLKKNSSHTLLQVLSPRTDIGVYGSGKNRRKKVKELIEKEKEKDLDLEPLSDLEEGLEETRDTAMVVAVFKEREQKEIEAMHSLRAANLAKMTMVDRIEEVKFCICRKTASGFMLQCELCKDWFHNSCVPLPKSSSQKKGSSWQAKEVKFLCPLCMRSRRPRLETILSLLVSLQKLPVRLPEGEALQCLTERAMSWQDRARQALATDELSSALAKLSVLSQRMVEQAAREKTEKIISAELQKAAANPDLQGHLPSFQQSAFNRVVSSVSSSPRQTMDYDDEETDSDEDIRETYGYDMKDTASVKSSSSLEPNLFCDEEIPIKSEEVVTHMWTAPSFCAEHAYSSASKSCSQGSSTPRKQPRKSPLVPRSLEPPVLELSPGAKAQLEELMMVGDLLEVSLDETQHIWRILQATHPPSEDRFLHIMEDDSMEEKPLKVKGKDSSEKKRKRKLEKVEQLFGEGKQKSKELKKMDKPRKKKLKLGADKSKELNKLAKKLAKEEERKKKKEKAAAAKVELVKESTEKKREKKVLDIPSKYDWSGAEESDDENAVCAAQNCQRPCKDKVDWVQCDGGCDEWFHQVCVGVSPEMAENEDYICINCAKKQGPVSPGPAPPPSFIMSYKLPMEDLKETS

In general, IC50 refers to the concentration that inhibits the measured activity by half. For the molecule `CC(=O)NCCn1cc(-c2nn3c(-c4c[nH]cn4)cnc3c(=O)n2C(C)C)cn1` [EXAMPLE 121, N-(2-(4-(7-(1H-Imidazol-4-yl)-3-isopropyl-4-oxo-3,4-dihydroimidazo[2,1-f][1,2,4]triazin-2-yl)-1H-pyrazol-1-yl)ethyl)acetamide], in series [1] (setting [3]), the concentration for half-maximal inhibition (IC50) came out at 0.09 µM. `CC(C)n1cnc(C(=O)N2CC3(C2)CN(C(=O)C2CC2)C3)c1` [EXAMPLE 81, (6-(Cyclopropanecarbonyl)-2,6-diazaspiro[3.3]heptan-2-yl)(1-isopropyl-1H-imidazol-4-yl)methanone]: in series [1] (setting [3]), the IC50 came to 0.1 µM. As to `CC(=O)NCCn1cc(-c2nn3c(-c4cn[nH]c4)cnc3c(=O)n2C(C)C)cn1` [EXAMPLE 47, N-(2-(4-(3-isopropyl-4-oxo-7-(1H-pyrazol-4-yl)-3,4-dihydroimidazo[2,1-f][1,2,4]triazin-2-yl)-1H-pyrazol-1-yl)ethyl)acetamide], the half-inhibitory concentration (IC50) in series [1] (setting [3]) is 0.05 µM. Take `CC(C)c1cc(C(=O)N2CC3(C2)CN(C(=O)c2cccs2)C3)n[nH]1` [EXAMPLE 99, (5-Isopropyl-1H-pyrazol-3-yl)(6-(thiophene-2-carbonyl)-2,6-diazaspiro[3.3]heptan-2-yl)methanone]: in series [2] (read-out: MDCK-WT (Papp)), the Papp A→B at 60 min, 10 μM is 200 nm/s. Take `CC(C)c1cc(C(=O)N2CC[C@@H](NC(=O)C3CC3)C2)[nH]n1` [(R)—N-(1-(3-isopropyl-1H-pyrazole-5-carbonyl)pyrrolidin-3-yl)cyclopropane carboxamide, reference compound]: the IC50 in series [1] (comparative compounds, enzyme concentration not stated, read-out: IC50 values (μM) of comparative compound) came to 0.02 µM. For the same molecule, the Papp A→B at 60 min, 10 μM in series [2] (comparative compounds, read-out: permeabilities in MDCK-WT of comparative compound) turned out to be 49 nm/s.

For the molecule `CC(C)c1cc(C(=O)N2CC3(C2)CN(C(=O)C2CC2)C3C)n[nH]1` (single isomer, unassigned) [EXAMPLE 92, [2-(Cyclopropanecarbonyl)-3-methyl-2,6-diazaspiro[3.3]heptan-6-yl]-(5-isopropyl-1H-pyrazol-3-yl)methanone], the IC50 in series [1] (setting [3]) was determined as 0.6 µM. Also, in series [2] (read-out: MDCK-WT (Papp)), the Papp A→B at 60 min, 10 μM was 80 nm/s. Turning to `CC(C)n1c(-c2cnn(CC3CC3)c2)nn2c(-c3cn[nH]c3)cnc2c1=O` [EXAMPLE 20, 2-(1-(Cyclopropylmethyl)-1H-pyrazol-4-yl)-3-isopropyl-7-(1H-pyrazol-4-yl)imidazo[2,1-f][1,2,4]triazin-4(3H)-one], the concentration for half-maximal inhibition (IC50) in series [1] (setting [3]) amounted to 0.04 µM. Further, the Papp A→B at 60 min, 10 μM in series [2] (read-out: MDCK-WT (Papp)) was determined as 250 nm/s. For `CC(C)n1c(-c2cnn(CC3CC3)c2)nc2c(C(N)=O)ccnc2c1=O` [EXAMPLE 30, 2-(1-(Cyclopropylmethyl)-1H-pyrazol-4-yl)-3-isopropyl-4-oxo-3,4-dihydropyrido[3,2-d]pyrimidine-8-carboxamide], in that order: 0.3 µM and 370 nm/s. Turning to `Cc1ccc(-n2cc(-c3cnc4c(=O)n(C(C)C)c(C)nn34)cn2)nc1` [EXAMPLE 67, 3-Isopropyl-2-methyl-7-(1-(5-methylpyridin-2-yl)-1H-pyrazol-4-yl)imidazo[2,1-f][1,2,4]triazin-4(3H)-one], the 50% inhibitory concentration (IC50) in series [1] (setting [3]) is 2.9 µM. For `CC(C)c1cc(C(=O)c2cnn3c(=O)c(C(C)C)c(-c4ccccc4)n(C)c23)n[nH]1` [EXAMPLE 68, 6-Isopropyl-3-(5-isopropyl-1H-pyrazole-3-carbonyl)-4-methyl-5-phenylpyrazolo[1,5-a]pyrimidin-7 (4H)-one], in series [1] (setting [3]), the IC50 is 0.4 µM. In the case of `CC(C)n1c(-c2ccccc2)nc2c(C(N)=O)ccnc2c1=O` [EXAMPLE 31, 3-isopropyl-4-oxo-2-phenyl-3,4-dihydropyrido[3,2-d]pyrimidine-8-carboxamide], in series [1] (setting [3]), the IC50 was 0.2 µM. In addition, the Papp A→B at 60 min, 10 μM in series [2] (read-out: MDCK-WT (Papp)) amounted to 640 nm/s. Turning to `CC(C)c1cc(C(=O)N2CC3(C2)CN(C(=O)C2(C)CC2)C3)n[nH]1` [EXAMPLE 96, (5-Isopropyl-1H-pyrazol-3-yl)(6-(1-methylcyclopropane-1-carbonyl)-2,6-diazaspiro[3.3]heptan-2-yl)methanone], the IC50 in series [1] (setting [3]) stood at 0.03 µM. As for `CC(c1ccccc1)c1cc(C(=O)N2CC3(C2)CN(C(=O)C2CC2)C3)n[nH]1` (single isomer, unassigned) [EXAMPLE 89, (6-(Cyclopropanecarbonyl)-2,6-diazaspiro[3.3]heptan-2-yl)(5-(1-phenylethyl)-1H-pyrazol-3-yl)methanone], the Papp A→B at 60 min, 10 μM in series [2] (read-out: MDCK-WT (Papp)) was determined as 90 nm/s. As for `CC(C)n1c(N2CC(c3ccccc3)C2)nn2c(-c3cnc[nH]3)cnc2c1=O` [EXAMPLE 8, 7-(1H-imidazol-5-yl)-3-isopropyl-2-(3-phenylazetidin-1-yl)imidazo[2,1-f][1,2,4]triazin-4(3H)-one], the IC50 in series [1] (setting [3]) was 0.04 µM. Besides, in series [2] (read-out: MDCK-WT (Papp)), the Papp A→B at 60 min, 10 μM was 230 nm/s. `CC(C)n1c(-c2cnn(CC3CC3)c2)nn2c(-c3cnc[nH]3)cnc2c1=O` [EXAMPLE 19, 2-(1-(Cyclopropylmethyl)-1H-pyrazol-4-yl)-7-(1H-imidazol-5-yl)-3-isopropylimidazo[2,1-f][1,2,4]triazin-4(3H)-one]: the half-inhibitory concentration (IC50) in series [1] (setting [3]) is 0.03 µM.

As to `CC(C)n1c(-c2cccs2)nn2c(-c3cn[nH]c3)cnc2c1=O` [EXAMPLE 27, 3-Isopropyl-7-(1H-pyrazol-4-yl)-2-(thiophen-2-yl)imidazo[2,1-f][1,2,4]triazin-4(3H)-one], the IC50 in series [1] (setting [3]) was 0.05 µM.

Regarding `CC(C)c1cc(C(=O)N2CC(NC(=O)C3CC3)C2)n[nH]1` [EXAMPLE 80, N-(1-(5-Isopropyl-1H-pyrazole-3-carbonyl)azetidin-3-yl)cyclopropanecarboxamide], in series [1] (setting [3]), the IC50 is 0.2 µM. `CC(C)n1c(-c2cccs2)nn2c(-c3cnc[nH]3)cnc2c1=O` [EXAMPLE 26, 7-(1H-Imidazol-5-yl)-3-isopropyl-2-(thiophen-2-yl)imidazo[2,1-f][1,2,4]triazin-4(3H)-one]: the IC50 in series [1] (setting [3]) came out at 0.2 µM. Also, in series [2] (read-out: MDCK-WT (Papp)), the Papp A→B at 60 min, 10 μM turned out to be 200 nm/s. On to `O=C(c1cc(C2CCCCC2)[nH]n1)N1CC2(C1)CN(C(=O)C1CC1)C2` [EXAMPLE 73, (5-Cyclohexyl-1H-pyrazol-3-yl)(6-(cyclopropanecarbonyl)-2,6-diazaspiro[3.3]heptan-2-yl)methanone], for which the Papp A→B at 60 min, 10 μM in series [2] (read-out: MDCK-WT (Papp)) worked out at 160 nm/s.

Take `CC(C)n1c(N(C)CCC2CCCO2)nn2c(-c3cn[nH]c3)cnc2c1=O` (single isomer, unassigned) [EXAMPLE 62, 3-Isopropyl-2-(methyl(2-(tetrahydrofuran-2-yl)ethyl)amino)-7-(1H-pyrazol-4-yl)imidazo[2,1-f][1,2,4]triazin-4(3H)-one]: the IC50 in series [1] (setting [3]) was 1 µM. As to `O=C(NC1CN(C(=O)c2cc(C3CC3)[nH]n2)C1)C1CC12CC2` (single isomer, unassigned) [EXAMPLE 104, N-(1-(5-cyclopropyl-1H-pyrazole-3-carbonyl)azetidin-3-yl)spiro[2.2]pentane-1-carboxamide], the Papp A→B at 60 min, 10 μM in series [2] (read-out: MDCK-WT (Papp)) amounted to 80 nm/s.

For `CCNC(=O)N1CC2(C1)CN(C(=O)c1cc(C(C)C)[nH]n1)C2` [EXAMPLE 41, N-Ethyl-6-(5-isopropyl-1H-pyrazole-3-carbonyl)-2,6-diazaspiro[3.3]heptane-2-carboxamide], the 50% inhibitory concentration (IC50) in series [1] (setting [3]) worked out at 0.03 µM. With `CC(C)c1cc(C(=O)N2CC3(CON(C(=O)C(C)(C)C)C3)C2)n[nH]1` [EXAMPLE 132, 1-[2-(5-Isopropyl-1H-pyrazole-3-carbonyl)-6-oxa-2,7-diazaspiro[3.4]octan-7-yl]-2,2-dimethyl-propan-1-one], in series [2] (read-out: MDCK-WT (Papp)), the Papp A→B at 60 min, 10 μM is 190 nm/s. `CC(C)c1cc(C(=O)N2CC3(C2)CN(C(=O)c2nn(C)cc2F)C3)n[nH]1` [EXAMPLE 126, [2-(4-Fluoro-1-methyl-pyrazole-3-carbonyl)-2,6-diazaspiro[3.3]heptan-6-yl]-(5-isopropyl-1H-pyrazol-3-yl)methanone]: the IC50 in series [1] (setting [3]) was 0.008 µM.

Source of the values: patent publication US20220289751A1, “COMPOUND HAVING KDM5 INHIBITORY ACTIVITY AND PHARMACEUTICAL USE THEREOF” (ONO PHARMACEUTICAL CO., LTD., priority 2019, published 2022).
